Source: article PMC9820345, “Metal Complexes of a 5-Nitro-8-Hydroxyquinoline-Proline Hybrid with Enhanced Water Solubility Targeting Multidrug Resistant Cancer Cells” (International Journal of Molecular Sciences, 2022)
Where two headings read alike, the source gives them in different places. Values belong to the molecule of their own block, whether it stands above or below them.

Tests used:
[1] = at 1 μM concentration; pH 7.4
Procedure: Thus, a ligand displacement study was performed spectrophotometrically using 2,2’-bipyridine as the competitor (Figure S21) to determine the stability constant for the RhCp* complex at pH 7.4.
SUPPLEMENTARY INFORMATION
Figure S 20. UV-vis spectr a recorded for the (a) RhCp* − HQNO2-L-Pro (1:1) and (b) RuCym −
HQNO2-L-Pro (1:1) systems at different times at pH 1. Absorbance values plotted against the time
measured in the (c) RhCp* − HQNO2-L-Pro (1:1) at 435 nm, and (d) RuCym − HQNO2-L-Pro (1:1) at
410 nm at pH 1 and 4 (indicated in the figure). { cligand = 50 μM; cRhCp* or RuCym = 50 μM; l = 1 cm; t =
Figure S 21. (a) UV -vis spectra of the R hCp*-HQNO2-L-Pro complex at various equivalents of 2,2’ -
bipyridine at pH 7.4 after 24 h waiting time and (b) the measured absorbance values at 4 35 nm plotted
against the 2,2’-bipyridine:complex ratio.
complex taken from Ref. [74]. {ccomplex = 50 μM; PBS’ buffer; l = 1 cm; t = 25.0 °C}
c (2,2'-bipyridine) / c (complex) […]

[2] = Formation constants of Fe(II) complexes by UV-vis spectrophotometric titrations; assay type: physicochemical; details: I = 0.1 M KCl, 25.0 °C
Procedure: UV-vis titrations were performed to determine the formation (overall stability) constants (β) for the complexes of HQNO2-L-Pro formed with Fe(III) and Fe(II) ions (Figures S10 and S11). In the latter case, titrations were performed in a laboratory glove box. The calculations were complicated by the overlapping feature of the ligand bands and the charge transfer bands of the complexes. Based on the absorption spectra Figures S10a and S11a), formation of mono, bis, and tris complexes were found in both chemical systems; obtained constants are collected in Table 2. […] Based on the concentration distribution diagrams (see Figure S10b for Fe(III) and Figure S11b for Fe(II)), it can be concluded that the tris complexes are the dominant species at pH 7.4 in the case of Fe(III), while with Fe(II) both tris and bis-ligand species are formed under the conditions of the titrations.
(§1) An Agilent Cary 8454 diode array spectrophotometer (Santa Clara, CA, USA) was used to obtain UV-vis spectra in the wavelength range 200–1000 nm, while spectra were recorded for the Fe(II)-containing samples using an Avantes (Avantes B.V., Apeldoorn, The Nederlands) AvaSpec-ULS2048CL-EVO spectrometer with an AvaLight-DHc light source and FDP-7UVIR200-2-VAR transmission dip probe. The titrations for the Fe(II)-containing samples were performed in a laboratory glove box (GP(Campus), Jacomex) (O2 content ≤ 1 ppm). The path length (ℓ) was 1 cm in most cases (the actual ℓ is always indicated in the legends of the figures). The concentrations of the ligands and complexes were between 40 and 200 µM, and 0.2 M KNO3 for the organometallic complexes or 0.1 M KCl for the Fe(II/III), Cu(II), and Zn(II) complexes were used to adjust the constant ionic strength. For HSA containing samples, complex concentrations were 50 µM, and 0.5, and 2 equiv. biomolecules were added for kinetic studies, respectively. For HSA model containing samples, complex concentrations were 50 µM, and the model concentrations were 0–150 µM and 0–500 µM, respectively, and the pH was 7.4 (PBS’). Spectra were always background and baseline corrected. The computer program HypSpec was used to obtain stability constants. Hydrolysis constants of the Fe(III), Fe(II), RuCym, and RhCp* species were included in the speciation models (see Table S4 with the data taken from References).

[3] = Aqueous solubility at physiological pH (S7.4); assay type: physicochemical; details: water, pH 7.4, aqueous buffer
[4] = Proton dissociation constants (pKa) of the ligand by pH-potentiometric, UV-vis and 1H NMR titrations; assay type: physicochemical; details: for pKa: 25.0 °C
Procedure: Characterization of the protonation/deprotonation equilibrium processes of a bioactive molecule is important to reveal its actual chemical form and charge at a given pH. The proton dissociation constant (Ka) is a key physico-chemical parameter since it has an impact on many biopharmaceutical characteristics such as lipophilicity, water solubility, and albumin binding, which in turn directly influences pharmacokinetics. The pKa values of the protonated HQNO2-L-Pro were determined by pH-potentiometric, UV-vis (Figure 1a), and ^1H NMR spectroscopic titrations (Table 1).
The pH-potentiometric measurements were carried out at 25.0 ± 0.1 °C in water in the pH range between 2.0 and 11.5 at a constant ionic strength of 0.2 M KNO3. The titrations were performed in a carbonate-free KOH solution (0.20 or 0.10 M). The exact concentrations of HNO3, HCl, and KOH solutions were always determined by pH-potentiometric titrations. An Orion 710A pH-meter equipped with a Metrohm combined electrode (type 6.0234.100) and a Metrohm 665 Dosimat burette were used for the measurements. […] The average water ionization constant (pKw) was determined as 13.76 ± 0.01, which is in good agreement with the literature data. In the case of the titrations in 30% (v/v) DMSO/H2O, the calibration of the pH-potentiometric system was conducted as in our former works. Samples were degassed by bubbling purified argon through them for about 10 min prior to the measurements, and the inert gas was also passed over the solutions during the titrations. Stoichiometry of the species and their equilibrium constants were obtained similarly to that performed in our previous works, with the use of computer program Hyperquad2013 [50].
as §1
The Bruker Avance III HD Ascend 500 Plus instrument (Billerica, MA, USA) was used for NMR studies. ^1H NMR spectroscopic measurements were carried out with a WATERGATE water suppression pulse scheme in the presence of 10% (v/v) D2O/H2O in most cases. DSS internal standard was added to samples to obtain reference peaks. ^1H NMR titrations were carried out for the ligand alone, and for the organometallic complexes in the presence of 0.2 M KNO3. With the AHA and FHA model peptides, the measurements were performed at pH 7.4 (PBS’) at 0.5 or 1 mM metal complex concentrations, and 1:1, 1:2 or 2:1 peptide-to-metal complex ratios were applied. NMR titrations were also performed for the Zn(II)-ligand systems using 0.1 M KCl ionic strength. […]

[5] = Formation constants of Cu(II) complexes by UV-vis spectrophotometric titrations; assay type: physicochemical; details: I = 0.1 M KCl, 25.0 °C
Procedure: as §1

- dissociation of the complex expected [1]: < 1%
SMILES: CC1=C(C)[C](C)([Rh]([Cl])[O]c2c(C[NH+]3CCC[C@H]3C(=O)O)cc([N+](=O)[O-])c3cccnc23)C(C)=C1C.[Cl-] [RhCp*-HQNO2-L-Pro, [RhCp*(HQNO2-L-Pro)Cl]Cl]

- logβ [M(HL)2] [2]: 32.74 ± 0.03
- logβ [M(HL)3] [2]: 47.60 ± 0.06
- logβ [M(HL)] [2]: 16.52 ± 0.03
- logβ [M(L)] [2]: 8.39 ± 0.03
- solubility [3]: > 10 mM
- pKa ([4]; 0.10 M KCl, UV-vis, I = 0.10 M KCl, cligand 40 μM, read-out: pKa (NProH+)): 10.75 ± 0.03
- pKa ([4]; 0.10 M KCl, UV-vis, I = 0.10 M KCl, cligand 40 μM, read-out: pKa (OH)): 5.43 ± 0.03
- pKa ([4]; 0.20 M KNO3, 1H NMR, I = 0.20 M KNO3, cligand 1000 μM, read-out: pKa (NProH+)): > 10.5
- pKa ([4]; 0.20 M KNO3, 1H NMR, I = 0.20 M KNO3, cligand 1000 μM, read-out: pKa (OH)): 5.56 ± 0.03
- pKa ([4]; 0.20 M KNO3, UV-vis, I = 0.20 M KNO3, cligand 40 μM, read-out: pKa (NProH+)): 10.78 ± 0.03
- pKa ([4]; 0.20 M KNO3, UV-vis, I = 0.20 M KNO3, cligand 40 μM, read-out: pKa (OH)): 5.5 ± 0.03
- fraction of H2L ([4]; pH 5.5): 47%
- fraction of HL− ([4]; pH 5.5): 53%
- pKa ([4]; water, 0.20 M KNO3, pH-potentiometry, I = 0.20 M KNO3, cligand 1700 μM, read-out: pKa (NProH+)): 10.68 ± 0.07
- pKa ([4]; water, 0.20 M KNO3, pH-potentiometry, I = 0.20 M KNO3, cligand 1700 μM, read-out: pKa (OH)): 5.57 ± 0.09
- logβ [M(HL)2] [5]: 38.60 ± 0.03
- logβ [M(HL)(L)] [5]: 31.75 ± 0.03
- logβ [M(HL)] [5]: 19.40 ± 0.03
- logβ [M(L)2] [5]: 22.99 ± 0.03
- logβ [M(L)] [5]: 14.45 ± 0.03
SMILES: O=C(O)[C@@H]1CCCN1Cc1cc([N+](=O)[O-])c2cccnc2c1O [HQNO2-L-Pro, (2S)-1-((8-hydroxy-5-nitroquinolin-7-yl)methyl)pyrrolidin-1-ium-2-carboxylate]
